Source: publication PMC6213796, “Purification and Identification of Angiotensin I-Converting Enzyme Inhibitory Peptides and the Antihypertensive Effect of Chlorella sorokiniana Protein Hydrolysates” (Nutrients, 2018)
Read-outs that look alike come from different tables or passages of the source. Residues, ends and D or L forms follow the SMILES beside them.

Assays:
ACE = conditions: cited from earlier work
Rabbit lung ACE = biological target: T1, Rabbit lung ACE (Oryctolagus cuniculus, UniProt P12822); assay: In vitro assay for ACE-inhibitory activity (HHL substrate, RP-HPLC of hippuric acid); assay type: biochemical; conditions: for ACE Inhibitory (%): RP-HPLC peaks of fraction F of PN-1G, at peptide content 0.01-0.03 mg/mL
T1 construct: ACE of rabbit lung, and other chemicals of analytical grade were obtained from Sigma Chemical Co; purchased Sigma Chemical Co. (St. Louis, MO, USA); host or cells: rabbit lung tissue
T1 sequence (P12822 34-1310): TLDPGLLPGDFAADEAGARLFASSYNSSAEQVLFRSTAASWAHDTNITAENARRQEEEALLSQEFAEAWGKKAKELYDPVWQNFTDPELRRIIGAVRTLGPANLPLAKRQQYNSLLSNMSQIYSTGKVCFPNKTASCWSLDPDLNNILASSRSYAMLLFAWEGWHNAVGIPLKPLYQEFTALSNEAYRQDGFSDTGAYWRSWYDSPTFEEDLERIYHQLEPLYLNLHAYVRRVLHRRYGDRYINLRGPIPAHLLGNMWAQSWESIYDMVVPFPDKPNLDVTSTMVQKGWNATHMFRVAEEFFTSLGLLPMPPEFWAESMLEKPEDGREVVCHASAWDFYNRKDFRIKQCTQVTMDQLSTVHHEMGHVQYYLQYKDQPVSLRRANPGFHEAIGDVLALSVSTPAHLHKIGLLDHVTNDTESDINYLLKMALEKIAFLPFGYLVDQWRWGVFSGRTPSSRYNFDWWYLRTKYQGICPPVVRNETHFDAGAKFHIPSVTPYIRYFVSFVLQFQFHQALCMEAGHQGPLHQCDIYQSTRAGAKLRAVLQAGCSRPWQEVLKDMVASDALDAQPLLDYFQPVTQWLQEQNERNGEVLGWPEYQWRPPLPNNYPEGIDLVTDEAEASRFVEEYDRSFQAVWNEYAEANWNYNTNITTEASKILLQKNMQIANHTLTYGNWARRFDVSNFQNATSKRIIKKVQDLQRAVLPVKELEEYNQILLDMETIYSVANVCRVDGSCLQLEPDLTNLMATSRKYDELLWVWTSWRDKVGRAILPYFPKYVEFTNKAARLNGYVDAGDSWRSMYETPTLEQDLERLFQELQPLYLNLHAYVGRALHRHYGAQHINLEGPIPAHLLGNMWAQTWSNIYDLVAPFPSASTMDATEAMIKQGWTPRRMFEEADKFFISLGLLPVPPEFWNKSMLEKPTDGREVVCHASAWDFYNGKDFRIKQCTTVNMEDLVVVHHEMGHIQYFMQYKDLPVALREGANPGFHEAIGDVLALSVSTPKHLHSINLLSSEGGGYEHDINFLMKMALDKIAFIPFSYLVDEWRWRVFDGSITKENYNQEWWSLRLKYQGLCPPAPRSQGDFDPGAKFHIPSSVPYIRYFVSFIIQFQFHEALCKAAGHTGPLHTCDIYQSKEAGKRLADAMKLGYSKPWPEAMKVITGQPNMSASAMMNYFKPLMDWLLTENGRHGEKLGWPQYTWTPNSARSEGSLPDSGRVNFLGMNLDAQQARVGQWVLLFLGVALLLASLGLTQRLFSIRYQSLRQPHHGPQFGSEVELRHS
Protocol: In brief, 15 mM HHL was dissolved in 100 mM Na-borate buffer (pH 8.3) supplemented with 300 mM NaCl. […] A mixture containing 75 μL of ACE solution and 75 μL of the sample with a 5000-Da MWCO membrane (Millipore, Burlington, MA, USA) was incubated at 37 °C for 10 min, to which was added 75 μL of HHL solution, and the mixture was incubated for a further 30 min. […] Finally, inhibition activity was calculated using the following formula.Inhibition activity (%) = [(Ec - Es)/(Ec - Eb)] × 100 where Ec is the absorbance with addition of the buffer instead of the test sample (control), Es is the absorbance when the sample was added to the reaction mixture (sample), and Eb is the absorbance when the stop solution was added before the reaction occurred (blank). […] All data presented in this paper are the average of three repeats or mean ± standard deviation (SD).

SHRs = conditions: tube feeding, after 2 to 4 h, compared with captopril at the same dose; cited from earlier work
[1] = biological target: angiotensin I-converting enzyme (ACE) of rabbit lung (rabbit) (UniProt P12822)
[2] = biological target: angiotensin I-converting enzyme (ACE) of rabbit lung (rabbit) (UniProt P12822); remark: listed apart in the source
[3] = ACE-inhibitory peptides from pepsin hydrolysate of Porphyra yezoensis, read-out: IC50
[4] = peaks F7 to F10, converted from μM, read-out: IC50 (equivalent in mg/mL) (converted)
[5] = peptides of peaks F7 to F10 from PN-1G, read-out: IC50

For “VRYL (UniProt P04654 220-223, looked up, fragment)”, the IC50 (ACE; before hydrolysis with digestive enzymes) is listed as 9 µg/mL.
With CC(C)[C@H](N)C(=O)N[C@@H](Cc1c[nH]c2ccccc12)C(=O)O [Peak F8, Val–Trp] (H-Val-Trp-OH) the IC50 (Rabbit lung ACE; IC50 (equivalent in mg/mL), peaks F7 to F10, converted from μM) was 0.593 µM, the IC50 (Rabbit lung ACE; IC50, peptides of peaks F7 to F10 from PN-1G) was 0.58 ± 0.02 µM and the “ACE Inhibitory (%)” value (Rabbit lung ACE) was 86.1%.
For “Ala-Lys-Tyr-Ser-Tyr (AKYSY; printed: Ala-Lys-Tyr-Ser-Tyr)”, the IC50 (ACE; [3]) is given as 1.52 µM.
In the case of Ile-Gln-Pro, the IC50 (ACE; peptide from Alcalase hydrolysate, read-out: IC50) is listed as 5.77 µM and the blood pressure-lowering effect (SHRs) is listed as “same blood pressure-lowering effect as captopril”.
For CC(C)[C@H](NC(=O)[C@@H](N)Cc1c[nH]c2ccccc12)C(=O)O [Peak F7, Trp–Val] (H-Trp-Val-OH), the “ACE Inhibitory (%)” value (Rabbit lung ACE) was 54.3%, the IC50 (Rabbit lung ACE; [4]) was 308 µM and the IC50 (Rabbit lung ACE; [5]) was 307.61 ± 0.01 µM.
In the case of Trp-Val (peptide), the IC50 of inhibition of ACE activity (hydrolysis of HHL to hippuric acid, RP-HPLC, 37 °C, pH 8.3) [1] is reported as 308 μM and the ACE Inhibitory (%) of peak F7 at peptide content 0.01 mg/mL [2] is reported as 54.3%.
For Ile-Tyr, the IC50 (ACE; [3]) is given as 2.69 µM.
In the case of Ile-Trp (peptide), the IC50 of inhibition of ACE activity (hydrolysis of HHL to hippuric acid, RP-HPLC, 37 °C, pH 8.3) [1] is reported as 0.5 μM and the ACE Inhibitory (%) of peak F9 at peptide content 0.01 mg/mL [2] is reported as 95.1%.
In the case of Met-Lys-Tyr, the IC50 (ACE; [3]) is listed as 7.26 µM.
In the case of CC[C@H](C)[C@H](N)C(=O)N[C@@H](Cc1c[nH]c2ccccc12)C(=O)O [Peak F9, Ile–Trp], the “ACE Inhibitory (%)” value (Rabbit lung ACE) is reported as 95.1%, the IC50 (Rabbit lung ACE; [4]) is reported as 0.504 µM and the IC50 (Rabbit lung ACE; [5]) is reported as 0.5 ± 0.01 µM.
In the case of Phe–Ala–Leu, the IC50 (ACE; peptide from pepsin hydrolysate of C. vulgaris, read-out: IC50) is given as 26.3 µM.
For Val-Trp (peptide), the IC50 of inhibition of ACE activity (hydrolysis of HHL to hippuric acid, RP-HPLC, 37 °C, pH 8.3) [1] was 0.58 μM and the ACE Inhibitory (%) of peak F8 at peptide content 0.01 mg/mL [2] was 86.1%.
In the case of Leu-Trp (peptide), the IC50 of inhibition of ACE activity (hydrolysis of HHL to hippuric acid, RP-HPLC, 37 °C, pH 8.3) [1] is reported as 1.11 μM and the ACE Inhibitory (%) of peak F10 at peptide content 0.01 mg/mL [2] is reported as 87.7%.
For Leu-Arg-Tyr, the IC50 (ACE; [3]) is listed as 5.06 µM.
